# The source made the active and inactive calls.
# Experiments:
# [1] = biological target: T1, Eukaryotic translation initiation factor 2-alpha kinase 3 (Homo sapiens, UniProt Q9NZJ5); experiment: Counterscreen assay for PERK inhibitors: Dose response cell-based high throughput screening assay to measure inhibition of PERK at 6 hours. [Related pubchem assays: 1522, 1416 ]; format: functional
# T1 sequence (Q9NZJ5 whole entry): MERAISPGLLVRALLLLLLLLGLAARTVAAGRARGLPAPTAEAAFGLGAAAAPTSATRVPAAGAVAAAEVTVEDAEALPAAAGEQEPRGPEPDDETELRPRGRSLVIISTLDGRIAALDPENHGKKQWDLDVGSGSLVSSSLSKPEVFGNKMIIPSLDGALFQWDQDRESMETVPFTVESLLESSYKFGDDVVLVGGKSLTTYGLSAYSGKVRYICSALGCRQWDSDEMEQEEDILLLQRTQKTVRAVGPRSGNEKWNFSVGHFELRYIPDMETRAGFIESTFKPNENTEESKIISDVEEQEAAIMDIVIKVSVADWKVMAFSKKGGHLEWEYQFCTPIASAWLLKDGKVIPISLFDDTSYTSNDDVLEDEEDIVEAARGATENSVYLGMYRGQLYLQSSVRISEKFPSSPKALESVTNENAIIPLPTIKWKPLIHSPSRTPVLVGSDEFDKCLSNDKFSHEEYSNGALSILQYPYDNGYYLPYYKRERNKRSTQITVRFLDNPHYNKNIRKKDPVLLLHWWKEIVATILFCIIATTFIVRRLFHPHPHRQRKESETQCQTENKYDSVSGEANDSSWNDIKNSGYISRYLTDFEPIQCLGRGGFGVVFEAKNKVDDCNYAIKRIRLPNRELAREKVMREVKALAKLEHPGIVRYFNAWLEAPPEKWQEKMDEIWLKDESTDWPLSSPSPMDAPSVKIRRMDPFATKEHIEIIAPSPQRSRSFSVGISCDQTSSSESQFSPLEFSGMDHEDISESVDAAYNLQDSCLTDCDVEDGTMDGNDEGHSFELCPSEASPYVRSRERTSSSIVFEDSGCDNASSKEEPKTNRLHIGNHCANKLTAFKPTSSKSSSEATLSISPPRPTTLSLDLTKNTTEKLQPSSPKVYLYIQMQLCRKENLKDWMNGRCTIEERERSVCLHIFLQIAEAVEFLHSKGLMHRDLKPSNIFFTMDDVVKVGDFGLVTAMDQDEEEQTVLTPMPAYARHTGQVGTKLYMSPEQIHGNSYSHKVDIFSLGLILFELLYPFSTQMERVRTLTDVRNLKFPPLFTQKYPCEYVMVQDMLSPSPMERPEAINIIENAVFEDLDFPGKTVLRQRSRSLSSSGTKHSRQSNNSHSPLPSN
# [2] = biological target: T1, Eukaryotic translation initiation factor 2-alpha kinase 3; experiment: Dose response cell-based high-throughput screening assay to measure PERK inhibition. [Related pubchem assays: 1416 ]; format: functional
# Cytochrome P450 2C9 [3] = biological target: T2, Cytochrome P450 2C9 (Homo sapiens, UniProt P11712)
# Nonstructural protein 1 = Nonstructural protein 1 (Influenza A virus, UniProt Q194T2); format: functional, Influenza A virus (A/California/07/2009(H1N1))
# Cytochrome P450 2C19 = Cytochrome P450 2C19 (Homo sapiens, UniProt P33261); experiment: Cytochrome panel assay with activity outcomes. Panel member name: p450-cyp2c19 Compounds with AC50 equal or less than 10 uM are considered active; format: functional
# Bcl-2-like protein 10 = Bcl-2-like protein 10 (Homo sapiens, UniProt Q9HD36); experiment: displacers of TR3 peptide from Bcl-B, primary screen, selectivity assay for Bfl-1 inhibitor project, biochemical, fluorescence polarization, FITC-TR3 peptide (AID 748);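 further: fluorescence polarization from a fluorescein-labelled TR3 peptide binding purified Bcl-B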
# [4] = growth suppression of PTEN-null colon cells, dose response, cell-based, HCT116 PTEN knockout (AID 1047); format: functional;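 further: HCT116 colon tumor cells with PTEN knocked out; cells exposed to compound for 60 hours before readout; potency for loss of cell viability measured by luminescence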
# [5] = growth suppression of beta-catenin-knockout colon cells, dose response, cell-based, HCT116, human colon tumor (AID 1045); format: functional;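 further: HCT116 colon tumor cells with beta catenin knocked out; cells exposed to compound for 60 hours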
# [6] = biological target: Induced myeloid leukemia cell differentiation protein Mcl-1 (Homo sapiens, UniProt Q07820); format: functional
# Protein Rev = Protein Rev (Human immunodeficiency virus type 1 group M subtype B (isolate HXB2)(HIV-1), UniProt P04618); experiment: inhibitors of Rev binding to RRE RNA, dose response, biochemical, fluorescence polarization, HIV-1 (AID 434976); parameters: species or system Human immunodeficiency virus 1
# Protein RecA = biological target: T3, Protein RecA (Mycobacterium tuberculosis, UniProt P9WHJ3); experiment: Fluorescence Cell-Free Homogeneous Dose Retest to Identify Inhibitors of RecA-Intein Splicing Activity. [Related pubchem assays (depositor defined):AID2097, AID2223, AID489010, AID492950]; format: functional
# T3 sequence (P9WHJ3 whole entry): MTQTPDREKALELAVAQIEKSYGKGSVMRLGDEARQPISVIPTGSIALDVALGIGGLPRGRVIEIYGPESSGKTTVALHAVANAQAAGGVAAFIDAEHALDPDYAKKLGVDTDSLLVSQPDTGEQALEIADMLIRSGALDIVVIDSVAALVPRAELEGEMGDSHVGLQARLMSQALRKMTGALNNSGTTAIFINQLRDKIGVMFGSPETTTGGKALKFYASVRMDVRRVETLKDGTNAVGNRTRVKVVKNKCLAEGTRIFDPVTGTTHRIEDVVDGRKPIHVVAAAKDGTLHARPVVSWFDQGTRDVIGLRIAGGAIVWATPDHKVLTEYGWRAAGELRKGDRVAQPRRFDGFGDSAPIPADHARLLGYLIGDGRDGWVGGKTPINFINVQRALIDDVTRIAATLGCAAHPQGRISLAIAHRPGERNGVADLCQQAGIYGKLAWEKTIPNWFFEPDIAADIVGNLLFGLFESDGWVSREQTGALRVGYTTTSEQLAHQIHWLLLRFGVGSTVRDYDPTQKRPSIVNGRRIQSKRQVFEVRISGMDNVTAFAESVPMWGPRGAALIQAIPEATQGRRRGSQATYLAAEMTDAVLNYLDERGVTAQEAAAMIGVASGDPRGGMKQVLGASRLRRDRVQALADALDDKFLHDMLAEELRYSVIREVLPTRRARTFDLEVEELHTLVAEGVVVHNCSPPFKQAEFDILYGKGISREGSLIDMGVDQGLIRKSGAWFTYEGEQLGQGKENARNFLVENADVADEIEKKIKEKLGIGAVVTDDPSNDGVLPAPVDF
# [7] = biological target: Eukaryotic translation initiation factor 4E (Mus musculus, UniProt P63073); experiment: eIF4E–eIF4G protein interaction inhibitors, dose response, biochemical, TR-FRET (AID 855); format: functional;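 further: potency for disrupting eIF4E binding to eIF4GI seen as loss of FRET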
# [8] = biological target: Female germline-specific tumor suppressor gld-1 (Caenorhabditis elegans, UniProt Q17339); experiment: inhibitors of GLD-1 binding to TGE RNA, dose response, biochemical, fluorescence polarization, C. elegans (AID 2802);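 further: fluorescence polarization of labeled TGE RNA bound by purified gld-1 protein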
# [9] = biological target: T4, Polyadenylate-binding protein 1 (Homo sapiens, UniProt P11940); experiment: PABP1 MLLE–PAM2 binding inhibitor potency, dose response, biochemical, fluorescence polarization, FITC-PAM2 peptide (AID 602259); format: functional; details: read-out: IC50_Mean
# [10] = biological target: T4, Polyadenylate-binding protein 1; experiment: PABP1 MLLE–PAM2 interaction inhibitors, dose response, miRNA deadenylation inhibitor project, biochemical, fluorescence polarization, Cy5-PAM2 peptide, secondary (AID 602260); format: functional; details: read-out: IC50_Mean
# [11] = biological target: E3 ubiquitin-protein ligase XIAP (Homo sapiens, UniProt P98170); experiment: Counter Screen using XIAP-Bir3 for Chemical Antagonists of Bir1/2 domains of IAP-family anti-apoptotic proteins. [Related pubchem assays (depositor defined):AID1018, AID1449, AID1514, AID1638, AID1749, AID1750, AID488957, AID488963]
# [12] = biological target: T5, Replicative DNA helicase DnaB (Mycobacterium tuberculosis, UniProt P9WMR3); experiment: DnaB intein splicing inhibitors, dose response, biochemical, cell-free fluorescence (AID 449749); format: functional
# T5 sequence (P9WMR3 whole entry): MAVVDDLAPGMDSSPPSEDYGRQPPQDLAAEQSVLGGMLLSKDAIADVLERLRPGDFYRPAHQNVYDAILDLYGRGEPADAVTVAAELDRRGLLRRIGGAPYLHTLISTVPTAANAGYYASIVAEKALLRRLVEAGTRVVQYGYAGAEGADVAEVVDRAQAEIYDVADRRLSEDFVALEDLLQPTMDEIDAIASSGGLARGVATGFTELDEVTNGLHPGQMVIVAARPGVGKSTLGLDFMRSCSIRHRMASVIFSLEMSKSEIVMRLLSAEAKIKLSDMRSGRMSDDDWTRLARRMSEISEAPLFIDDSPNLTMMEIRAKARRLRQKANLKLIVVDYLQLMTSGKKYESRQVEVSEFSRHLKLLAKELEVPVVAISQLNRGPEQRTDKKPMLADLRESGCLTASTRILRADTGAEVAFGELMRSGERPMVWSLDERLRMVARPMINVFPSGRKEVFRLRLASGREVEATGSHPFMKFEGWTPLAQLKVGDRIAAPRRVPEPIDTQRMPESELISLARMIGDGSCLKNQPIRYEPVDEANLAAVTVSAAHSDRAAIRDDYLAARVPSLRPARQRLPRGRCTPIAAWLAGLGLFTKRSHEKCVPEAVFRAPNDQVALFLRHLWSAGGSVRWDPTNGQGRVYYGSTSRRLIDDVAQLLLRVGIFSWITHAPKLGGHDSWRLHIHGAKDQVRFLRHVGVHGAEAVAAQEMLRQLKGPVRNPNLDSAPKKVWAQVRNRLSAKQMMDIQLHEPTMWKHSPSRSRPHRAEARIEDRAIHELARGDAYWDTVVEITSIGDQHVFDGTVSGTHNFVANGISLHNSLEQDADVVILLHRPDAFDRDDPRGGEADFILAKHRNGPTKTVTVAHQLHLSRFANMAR
# Cytochrome P450 2C9 [13] = biological target: T2, Cytochrome P450 2C9; details: Potency
# [14] = biological target: Eukaryotic translation initiation factor 4H (Homo sapiens, UniProt Q15056); experiment: human eIF4H binding inhibitors, primary screen, translation initiation inhibitor project, biochemical, uHTS, fluorescence polarization (AID 2012)
# [15] = biological target: T4, Polyadenylate-binding protein 1; experiment: PABP poly(A) RNA binding inhibitors, primary screen, biochemical, fluorescence polarization, uHTS (AID 2014)
# Exodeoxyribonuclease V = Exodeoxyribonuclease V (Escherichia coli (strain K12), UniProt P04993+P07648+P08394); experiment: E. coli RecBCD inhibitors, dose response, counter-screen for AddAB inhibitor project, absorbance, V66 E. coli, mutant T4 phage (AID 492957); format: functional, cell-based, Escherichia coli str. K-12 substr. MG1655
# [16] = Counterscreen for AddAB inhibitors: absorbance-based bacterial cell-based high throughput dose response assay for inhibitors of bacterial viability. [Related pubchem assays (depositor defined):AID435030, AID449728, AID449731, AID488942, AID488955, AID488956]; format: functional
# [17] = biological target: DNA dC->dU-editing enzyme APOBEC-3G (Homo sapiens, UniProt Q9HC16); format: functional;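 further: Dose-response counterscreen measuring inhibition of APOBEC3G DNA deaminase activity, run while confirming APOBEC3A inhibitors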
# [18] = biological target: DNA dC->dU-editing enzyme APOBEC-3A (Homo sapiens, UniProt P31941); experiment: Dose Response confirmation of small molecule APOBEC3A DNA Deaminase Inhibitors via a fluorescence-based single-stranded DNA deaminase assay. [Related pubchem assays (depositor defined):AID493011, AID493024]; format: functional
# Sequence of DNA dC->dU-editing enzyme APOBEC-3A (P31941 whole entry): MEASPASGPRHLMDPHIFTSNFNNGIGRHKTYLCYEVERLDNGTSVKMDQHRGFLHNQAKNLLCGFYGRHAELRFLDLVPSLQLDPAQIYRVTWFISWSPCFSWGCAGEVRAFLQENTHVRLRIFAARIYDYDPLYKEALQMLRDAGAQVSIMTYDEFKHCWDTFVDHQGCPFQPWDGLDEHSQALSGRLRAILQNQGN
# T4 sequence (P11940 whole entry): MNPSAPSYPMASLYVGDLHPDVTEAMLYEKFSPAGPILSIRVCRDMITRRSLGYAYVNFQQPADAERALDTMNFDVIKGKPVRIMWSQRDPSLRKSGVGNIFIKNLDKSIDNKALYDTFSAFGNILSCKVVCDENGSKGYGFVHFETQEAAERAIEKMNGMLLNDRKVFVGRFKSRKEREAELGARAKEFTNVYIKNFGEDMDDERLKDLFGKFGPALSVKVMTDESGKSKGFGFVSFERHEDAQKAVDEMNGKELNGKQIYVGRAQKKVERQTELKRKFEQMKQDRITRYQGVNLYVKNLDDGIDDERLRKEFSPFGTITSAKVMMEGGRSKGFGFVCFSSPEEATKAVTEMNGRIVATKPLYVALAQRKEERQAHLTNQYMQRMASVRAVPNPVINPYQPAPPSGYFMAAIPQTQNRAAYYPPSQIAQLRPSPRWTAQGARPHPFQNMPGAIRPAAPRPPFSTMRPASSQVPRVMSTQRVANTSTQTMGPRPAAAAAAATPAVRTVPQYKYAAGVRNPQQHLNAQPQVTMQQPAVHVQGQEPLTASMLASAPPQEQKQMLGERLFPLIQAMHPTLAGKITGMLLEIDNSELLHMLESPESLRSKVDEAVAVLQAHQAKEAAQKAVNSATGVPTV
# T2 sequence (P11712 whole entry): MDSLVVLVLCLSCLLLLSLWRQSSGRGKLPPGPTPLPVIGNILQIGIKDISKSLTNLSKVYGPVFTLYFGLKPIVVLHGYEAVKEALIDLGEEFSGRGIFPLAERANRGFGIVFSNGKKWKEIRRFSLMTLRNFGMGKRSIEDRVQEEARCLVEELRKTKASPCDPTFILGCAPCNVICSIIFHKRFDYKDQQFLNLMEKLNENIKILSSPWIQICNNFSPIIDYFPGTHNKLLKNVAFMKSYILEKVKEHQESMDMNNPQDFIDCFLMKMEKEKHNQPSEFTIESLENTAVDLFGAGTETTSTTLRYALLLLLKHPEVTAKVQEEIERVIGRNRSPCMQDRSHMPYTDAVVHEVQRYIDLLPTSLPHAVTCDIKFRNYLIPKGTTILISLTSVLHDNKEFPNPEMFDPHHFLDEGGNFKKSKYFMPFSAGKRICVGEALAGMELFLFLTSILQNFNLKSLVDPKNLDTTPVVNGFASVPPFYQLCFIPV
# Sequence of Bcl-2-like protein 10 (Q9HD36 whole entry): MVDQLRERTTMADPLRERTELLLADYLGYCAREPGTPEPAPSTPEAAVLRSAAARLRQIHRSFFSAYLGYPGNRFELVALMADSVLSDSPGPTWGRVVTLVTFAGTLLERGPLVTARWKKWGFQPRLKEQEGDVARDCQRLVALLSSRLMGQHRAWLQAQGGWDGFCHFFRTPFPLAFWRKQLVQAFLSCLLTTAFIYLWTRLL
# Sequence of Protein Rev (P04618 whole entry): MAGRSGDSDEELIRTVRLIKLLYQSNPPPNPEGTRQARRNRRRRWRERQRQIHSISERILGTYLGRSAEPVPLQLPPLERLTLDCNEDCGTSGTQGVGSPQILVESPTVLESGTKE
# Sequence of Female germline-specific tumor suppressor gld-1 (Q17339 whole entry): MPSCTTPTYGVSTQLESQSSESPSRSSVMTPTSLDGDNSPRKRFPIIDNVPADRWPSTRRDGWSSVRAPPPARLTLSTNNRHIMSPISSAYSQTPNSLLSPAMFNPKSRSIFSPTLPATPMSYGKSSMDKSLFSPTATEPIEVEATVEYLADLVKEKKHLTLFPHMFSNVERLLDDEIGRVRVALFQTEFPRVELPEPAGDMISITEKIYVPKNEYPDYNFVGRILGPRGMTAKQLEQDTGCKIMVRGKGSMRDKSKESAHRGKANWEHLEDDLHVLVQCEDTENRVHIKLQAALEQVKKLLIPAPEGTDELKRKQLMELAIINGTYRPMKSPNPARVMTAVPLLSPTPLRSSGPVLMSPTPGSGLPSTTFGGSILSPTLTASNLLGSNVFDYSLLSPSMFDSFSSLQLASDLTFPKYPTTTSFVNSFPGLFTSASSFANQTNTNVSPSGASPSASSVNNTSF
# Sequence of E3 ubiquitin-protein ligase XIAP (P98170 whole entry): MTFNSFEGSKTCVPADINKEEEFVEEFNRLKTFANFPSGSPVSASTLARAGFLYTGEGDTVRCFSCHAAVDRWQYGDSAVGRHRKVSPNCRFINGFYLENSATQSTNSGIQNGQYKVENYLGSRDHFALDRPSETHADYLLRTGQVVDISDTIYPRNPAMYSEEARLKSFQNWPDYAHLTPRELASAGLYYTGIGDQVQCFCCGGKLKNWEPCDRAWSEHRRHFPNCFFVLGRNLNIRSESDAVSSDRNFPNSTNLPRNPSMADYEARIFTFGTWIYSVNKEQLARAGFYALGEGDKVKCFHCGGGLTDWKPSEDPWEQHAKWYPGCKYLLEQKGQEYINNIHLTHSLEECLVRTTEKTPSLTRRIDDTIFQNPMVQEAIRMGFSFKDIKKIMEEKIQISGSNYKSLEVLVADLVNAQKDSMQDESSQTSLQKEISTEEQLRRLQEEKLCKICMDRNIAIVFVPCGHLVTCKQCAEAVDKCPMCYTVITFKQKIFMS
# Sequence of DNA dC->dU-editing enzyme APOBEC-3G (Q9HC16 whole entry): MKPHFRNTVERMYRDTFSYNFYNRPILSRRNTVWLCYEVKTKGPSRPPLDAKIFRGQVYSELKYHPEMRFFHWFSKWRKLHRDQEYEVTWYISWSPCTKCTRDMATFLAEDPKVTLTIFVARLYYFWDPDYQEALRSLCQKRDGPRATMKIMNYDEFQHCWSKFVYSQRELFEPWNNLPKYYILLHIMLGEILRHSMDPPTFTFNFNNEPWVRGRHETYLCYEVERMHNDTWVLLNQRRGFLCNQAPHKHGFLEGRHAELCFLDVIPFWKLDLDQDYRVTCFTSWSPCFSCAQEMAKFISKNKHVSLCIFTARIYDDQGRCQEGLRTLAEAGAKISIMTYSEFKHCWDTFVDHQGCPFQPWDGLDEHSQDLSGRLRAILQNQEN
# Sequence of Eukaryotic translation initiation factor 4E (P63073 whole entry): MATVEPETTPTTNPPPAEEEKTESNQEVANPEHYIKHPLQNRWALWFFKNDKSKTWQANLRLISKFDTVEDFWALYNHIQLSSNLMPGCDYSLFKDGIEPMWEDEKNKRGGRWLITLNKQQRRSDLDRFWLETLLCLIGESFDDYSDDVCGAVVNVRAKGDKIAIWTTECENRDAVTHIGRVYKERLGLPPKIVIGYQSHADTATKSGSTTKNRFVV
# Sequence of Nonstructural protein 1 (Q194T2 whole entry): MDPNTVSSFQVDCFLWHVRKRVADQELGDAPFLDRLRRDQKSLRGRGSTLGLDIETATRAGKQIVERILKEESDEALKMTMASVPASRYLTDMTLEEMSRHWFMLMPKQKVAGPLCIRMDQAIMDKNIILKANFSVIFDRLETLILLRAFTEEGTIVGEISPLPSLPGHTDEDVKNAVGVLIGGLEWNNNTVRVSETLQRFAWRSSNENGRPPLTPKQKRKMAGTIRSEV
# Sequence of Cytochrome P450 2C19 (P33261 whole entry): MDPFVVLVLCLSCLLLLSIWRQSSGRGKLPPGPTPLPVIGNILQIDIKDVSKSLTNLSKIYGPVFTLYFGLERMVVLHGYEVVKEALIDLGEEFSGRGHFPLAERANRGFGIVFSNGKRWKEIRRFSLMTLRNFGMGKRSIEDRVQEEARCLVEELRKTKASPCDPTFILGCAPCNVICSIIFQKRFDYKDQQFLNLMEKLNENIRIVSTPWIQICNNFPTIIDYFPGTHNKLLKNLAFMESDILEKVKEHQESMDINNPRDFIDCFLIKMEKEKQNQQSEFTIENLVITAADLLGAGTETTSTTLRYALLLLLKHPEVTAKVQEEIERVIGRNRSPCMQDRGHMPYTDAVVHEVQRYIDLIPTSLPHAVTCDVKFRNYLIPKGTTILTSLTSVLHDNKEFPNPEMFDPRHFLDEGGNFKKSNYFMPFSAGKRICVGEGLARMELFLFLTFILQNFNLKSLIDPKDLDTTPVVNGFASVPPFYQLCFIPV
# Sequence of Induced myeloid leukemia cell differentiation protein Mcl-1 (Q07820 whole entry): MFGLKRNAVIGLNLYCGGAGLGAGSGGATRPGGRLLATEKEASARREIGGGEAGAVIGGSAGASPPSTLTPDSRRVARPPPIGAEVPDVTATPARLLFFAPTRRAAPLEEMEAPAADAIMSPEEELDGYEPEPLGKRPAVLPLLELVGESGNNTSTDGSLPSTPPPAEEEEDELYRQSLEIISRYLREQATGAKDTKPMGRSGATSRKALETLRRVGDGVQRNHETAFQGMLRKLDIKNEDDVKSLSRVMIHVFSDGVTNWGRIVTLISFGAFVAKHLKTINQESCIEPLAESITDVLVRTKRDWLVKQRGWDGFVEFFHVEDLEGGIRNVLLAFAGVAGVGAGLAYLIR
compound,measurement,setting,value
Cc1ccccc1NC(=O)NCCCN1CCCC1,EC50,[1],> 55.7 µM (not active)
same,EC50,[2],> 55.7 µM (not active)
O=C(Cn1cnc([N+](=O)[O-])n1)N/N=C/c1ccccc1O,AC50,Cytochrome P450 2C9 [3],10 µM (inconclusive)
same,IC50,Nonstructural protein 1,9.05 µM (active)
same,EC50,[1],> 55.7 µM (not active)
same,EC50,[2],> 55.7 µM (not active)
same,AC50,Cytochrome P450 2C19,inconclusive
COc1ccc(-c2coc3c(CN4CCCCC4)c(O)c(CN4CCCCC4)c(O)c3c2=O)cc1,IC50,Bcl-2-like protein 10,79.7 µM (inactive)
same,EC50,[4],34.4 µM (active)
same,EC50,[5],32.6 µM (active)
Nc1ccc(O)c2c1C(=O)c1ccccc1C2=O,IC50,[6],4.35 µM (active)
same,IC50,Protein Rev,> 75.4 µM (not active)
same,EC50,Protein RecA,39 µM (active)
same,IC50,[7],25.7 µM (active)
same,IC50,[8],3.05 µM (active)
same,IC50,[9],24.3 µM (inactive)
same,IC50,[10],> 66 µM (inactive)
same,IC50,[11],< 0.313 µM (active)
same,AC50,[12],79.2 µM (active)
CC(C)[C@@H](CC(=O)N[C@@H]1CCNC[C@H]1C(=O)N[C@H](CC(=O)N[C@@H](CCC(=O)O)CC(=O)O)Cc1c[nH]c2ccccc12)NC(=O)C[C@H](CO)NC(=O)[C@@H]1CNCC[C@H]1N,AC50,Cytochrome P450 2C9 [13],39.8 µM (inconclusive)
Cc1ccc[n+](CC(=O)c2ccccc2)c1,IC50,[14],> 100 µM (inactive)
same,IC50,[15],5.7 µM (active)
CC(=O)N(/N=C/c1ccc([N+](=O)[O-])o1)c1nc2ccccc2c(=O)n1-c1ccccc1,IC50,Exodeoxyribonuclease V,> 119 µM (inactive)
same,IC50,[16],45.9 µM (inactive)
O=C(COC(=O)CC12CC3CC(CC(C3)C1)C2)Nc1ncc(Cl)cc1Cl,IC50,Bcl-2-like protein 10,40.2 µM (active)
C[N+]1(CC(O)c2ccccc2)CCCCCC1 (stereo not drawn),IC50,[14],60.9 µM (active)
same,IC50,[17],4.26 µM (active)
same,IC50,[15],5.42 µM (active)
same,IC50,[18],2.71 µM (active)
CN(C(=O)CN1C(=O)c2cccc(N)c2C1=O)C1CCCCC1,IC50,Protein Rev,> 8.39 µM (active)
same,IC50,[8],4.29 µM (active)
same,IC50,[9],32.6 µM (inactive)
same,IC50,[10],> 66 µM (inactive)
